Measured values reported in PubChem BioAssay (NCI).
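Growth conditions: 96-well plates. Treatment: test compound, 48 hours, 5 concentrations. Analysis: linear interpolation between bracketing concentrations; unreached endpoints set to highest concentration. Here, GI50 denotes the concentration required for 50% inhibition of growth. TGI is the concentration that stops growth completely.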

Experiments:
Assay in all cases: NCI-60 cell line screen, 48 h
M14 melanoma = system: M14 melanoma
SK-OV-3 ovarian = system: SK-OV-3 ovarian
SNB-19 CNS = system: SNB-19 CNS
EKVX NSCLC = system: EKVX NSCLC
MDA-MB-231 breast = system: MDA-MB-231 breast
CAKI-1 renal = system: CAKI-1 renal
SK-MEL-2 melanoma = system: SK-MEL-2 melanoma
KM12 colon = system: KM12 colon
HOP-62 NSCLC = system: HOP-62 NSCLC
NCI-H23 lung = system: NCI-H23 lung
NCI-H226 lung = system: NCI-H226 lung
HS 578T breast = system: HS 578T breast
786-0 renal = system: 786-0 renal
SN12C renal = system: SN12C renal
A549 NSCLC = system: A549 NSCLC
MALME-3M melanoma = system: MALME-3M melanoma
OVCAR-5 ovarian = system: OVCAR-5 ovarian
COLO 205 colon = system: COLO 205 colon
RXF 393 renal = system: RXF 393 renal
OVCAR-4 ovarian = system: OVCAR-4 ovarian
SK-MEL-28 melanoma = system: SK-MEL-28 melanoma
NCI/ADR-RES ovarian = system: NCI/ADR-RES ovarian
T-47D breast = system: T-47D breast
SF-539 CNS = system: SF-539 CNS
PC-3 prostate = system: PC-3 prostate
NCI-H460 lung = system: NCI-H460 lung
MCF7 breast = system: MCF7 breast
RPMI-8226 leukemia = system: RPMI-8226 leukemia
SNB-75 CNS = system: SNB-75 CNS
CCRF-CEM leukemia = system: CCRF-CEM leukemia
HCT-116 colon = system: HCT-116 colon
HT29 colon = system: HT29 colon
MOLT-4 leukemia = system: MOLT-4 leukemia
HOP-92 NSCLC = system: HOP-92 NSCLC
K-562 leukemia = system: K-562 leukemia
TK-10 renal = system: TK-10 renal
HCT-15 colon = system: HCT-15 colon
ACHN renal = system: ACHN renal
HL-60(TB) leukemia = system: HL-60(TB) leukemia
BT-549 breast = system: BT-549 breast
U251 CNS = system: U251 CNS
OVCAR-8 ovarian = system: OVCAR-8 ovarian
MDA-MB-435 = system: MDA-MB-435
UO-31 renal = system: UO-31 renal
HCC-2998 colon = system: HCC-2998 colon
SF-268 CNS = system: SF-268 CNS
NCI-H522 lung = system: NCI-H522 lung
UACC-257 melanoma = system: UACC-257 melanoma
SF-295 CNS = system: SF-295 CNS
UACC-62 melanoma = system: UACC-62 melanoma
SK-MEL-5 melanoma = system: SK-MEL-5 melanoma
LOX IMVI melanoma = system: LOX IMVI melanoma
OVCAR-3 ovarian = system: OVCAR-3 ovarian
IGROV1 ovarian = system: IGROV1 ovarian
A498 renal = system: A498 renal
DU-145 prostate = system: DU-145 prostate

`C=CC1CC12C(=O)C1OC2(C)C2C(=O)c3c(ccc4c3ccc3ccccc34)C(=O)C12` (stereo not given) was tested, and the GI50 (M14 melanoma) was 67.3 µM, the TGI (M14 melanoma) was greater than 100 µM and the GI50 (SK-OV-3 ovarian) was greater than 100 µM. The TGI (SK-OV-3 ovarian) was greater than 100 µM, the GI50 (SNB-19 CNS) was greater than 100 µM and the TGI (SNB-19 CNS) was greater than 100 µM. The GI50 (EKVX NSCLC) was 78.6 µM, the TGI (EKVX NSCLC) was greater than 100 µM and the GI50 (MDA-MB-231 breast) was 39.1 µM. For the same compound, the TGI (MDA-MB-231 breast) was greater than 100 µM, the GI50 (CAKI-1 renal) was 19.1 µM and the TGI (CAKI-1 renal) was 58.6 µM. It also gave a GI50 (SK-MEL-2 melanoma) greater than 100 µM, a TGI (SK-MEL-2 melanoma) greater than 100 µM and a GI50 (KM12 colon) of 13.1 µM. For the same compound, the TGI (KM12 colon) was greater than 100 µM, the GI50 (HOP-62 NSCLC) was greater than 100 µM and the TGI (HOP-62 NSCLC) was greater than 100 µM. The GI50 (NCI-H23 lung) was 37.3 µM, the TGI (NCI-H23 lung) was greater than 100 µM and the GI50 (NCI-H226 lung) was 54.1 µM. It also gave a TGI (NCI-H226 lung) greater than 100 µM, a GI50 (HS 578T breast) of 68.1 µM and a TGI (HS 578T breast) greater than 100 µM. For the same compound, the GI50 (786-0 renal) was 38.8 µM, the TGI (786-0 renal) was greater than 100 µM and the GI50 (SN12C renal) was 64.3 µM. The TGI (SN12C renal) was greater than 100 µM, the GI50 (A549 NSCLC) was 95.2 µM and the TGI (A549 NSCLC) was greater than 100 µM. The GI50 (MALME-3M melanoma) was 16.8 µM, the TGI (MALME-3M melanoma) was greater than 100 µM and the GI50 (OVCAR-5 ovarian) was greater than 100 µM. It also gave a TGI (OVCAR-5 ovarian) greater than 100 µM, a GI50 (COLO 205 colon) of 51 µM and a TGI (COLO 205 colon) greater than 100 µM. For the same compound, the GI50 (RXF 393 renal) was 25 µM, the TGI (RXF 393 renal) was 83 µM and the GI50 (OVCAR-4 ovarian) was greater than 100 µM. For the same compound, the TGI (OVCAR-4 ovarian) was greater than 100 µM, the GI50 (SK-MEL-28 melanoma) was 65.3 µM and the TGI (SK-MEL-28 melanoma) was greater than 100 µM. It also gave a GI50 (NCI/ADR-RES ovarian) of 74.9 µM, a TGI (NCI/ADR-RES ovarian) greater than 100 µM and a GI50 (T-47D breast) of 19.7 µM. The TGI (T-47D breast) was greater than 100 µM, the GI50 (SF-539 CNS) was 47.2 µM and the TGI (SF-539 CNS) was greater than 100 µM. It also gave a GI50 (PC-3 prostate) of 35.6 µM, a TGI (PC-3 prostate) greater than 100 µM and a GI50 (NCI-H460 lung) of 37.1 µM. It also gave a TGI (NCI-H460 lung) greater than 100 µM, a GI50 (MCF7 breast) of 34.2 µM and a TGI (MCF7 breast) greater than 100 µM. It also gave a GI50 (RPMI-8226 leukemia) of 12 µM, a TGI (RPMI-8226 leukemia) greater than 100 µM and a GI50 (SNB-75 CNS) greater than 100 µM. For the same compound, the TGI (SNB-75 CNS) was greater than 100 µM, the GI50 (CCRF-CEM leukemia) was 17.1 µM and the TGI (CCRF-CEM leukemia) was greater than 100 µM. It also gave a GI50 (HCT-116 colon) of 52.6 µM, a TGI (HCT-116 colon) greater than 100 µM and a GI50 (HT29 colon) of 91.6 µM. It also gave a TGI (HT29 colon) greater than 100 µM, a GI50 (MOLT-4 leukemia) of 30.8 µM and a TGI (MOLT-4 leukemia) greater than 100 µM. The GI50 (HOP-92 NSCLC) was 34.4 µM, the TGI (HOP-92 NSCLC) was greater than 100 µM and the GI50 (K-562 leukemia) was 26.1 µM. It also gave a TGI (K-562 leukemia) greater than 100 µM, a GI50 (TK-10 renal) of 52.9 µM and a TGI (TK-10 renal) greater than 100 µM. For the same compound, the GI50 (HCT-15 colon) was 14.2 µM, the TGI (HCT-15 colon) was 80.6 µM and the GI50 (ACHN renal) was 27.5 µM. The TGI (ACHN renal) was 88.1 µM, the GI50 (HL-60(TB) leukemia) was 31 µM and the TGI (HL-60(TB) leukemia) was greater than 100 µM. For the same compound, the GI50 (BT-549 breast) was 58.9 µM, the TGI (BT-549 breast) was greater than 100 µM and the GI50 (U251 CNS) was 26.7 µM. It also gave a TGI (U251 CNS) of 87.6 µM, a GI50 (OVCAR-8 ovarian) of 64.6 µM and a TGI (OVCAR-8 ovarian) greater than 100 µM. The GI50 (MDA-MB-435) was 41.4 µM, the TGI (MDA-MB-435) was greater than 100 µM and the GI50 (UO-31 renal) was greater than 100 µM. The TGI (UO-31 renal) was greater than 100 µM, the GI50 (HCC-2998 colon) was 94.6 µM and the TGI (HCC-2998 colon) was greater than 100 µM. It also gave a GI50 (SF-268 CNS) of 36.2 µM, a TGI (SF-268 CNS) greater than 100 µM and a GI50 (NCI-H522 lung) greater than 100 µM. It also gave a TGI (NCI-H522 lung) greater than 100 µM, a GI50 (UACC-257 melanoma) of 89.4 µM and a TGI (UACC-257 melanoma) greater than 100 µM.
For `C=C(C=O)c1c2c(nc3ccccc13)C(=O)c1ccccc1C2=O`, the TGI (M14 melanoma) was 1.6 µM, the TGI (SK-OV-3 ovarian) was 12.8 µM and the TGI (SNB-19 CNS) was 2.8 µM. The TGI (EKVX NSCLC) was 3.61 µM, the TGI (MDA-MB-231 breast) was 3.27 µM and the TGI (SF-295 CNS) was 2.76 µM. The TGI (CAKI-1 renal) was 0.795 µM, the TGI (KM12 colon) was 2.71 µM and the TGI (HOP-62 NSCLC) was 2.48 µM. It also gave a TGI (NCI-H23 lung) of 2.85 µM, a TGI (NCI-H226 lung) of 1.97 µM and a TGI (UACC-62 melanoma) of 2.59 µM. For the same compound, the TGI (HS 578T breast) was 0.961 µM, the TGI (786-0 renal) was greater than 100 µM and the TGI (SK-MEL-5 melanoma) was 0.339 µM. It also gave a TGI (SN12C renal) of 41.3 µM, a TGI (MALME-3M melanoma) of 3.27 µM and a TGI (LOX IMVI melanoma) of 45 µM. The TGI (OVCAR-5 ovarian) was 4.92 µM, the TGI (T-47D breast) was 3.29 µM and the TGI (SF-539 CNS) was 0.605 µM. For the same compound, the TGI (PC-3 prostate) was 10.6 µM, the TGI (OVCAR-3 ovarian) was 2.35 µM and the TGI (IGROV1 ovarian) was 2.19 µM. The TGI (SNB-75 CNS) was 2.18 µM, the TGI (CCRF-CEM leukemia) was 0.792 µM and the TGI (HCT-116 colon) was 3.48 µM. For the same compound, the TGI (A498 renal) was 3.76 µM, the TGI (MOLT-4 leukemia) was 0.997 µM and the TGI (HOP-92 NSCLC) was 5.23 µM. For the same compound, the TGI (K-562 leukemia) was greater than 22.5 µM, the TGI (TK-10 renal) was 2.32 µM and the TGI (HCT-15 colon) was 1.01 µM. The TGI (ACHN renal) was 1.7 µM, the TGI (HL-60(TB) leukemia) was 15.9 µM and the TGI (BT-549 breast) was 3.57 µM. It also gave a TGI (U251 CNS) greater than 100 µM, a TGI (OVCAR-8 ovarian) of 2.3 µM and a TGI (MDA-MB-435) greater than 100 µM. It also gave a TGI (UO-31 renal) greater than 29 µM, a TGI (DU-145 prostate) of 0.982 µM and a TGI (HCC-2998 colon) greater than 100 µM. For the same compound, the TGI (SF-268 CNS) was 3.02 µM and the TGI (NCI-H522 lung) was 2.09 µM.
